Source: patent publication US20090227619A1, “Harmine derivatives, intermediates used in their preparations, preparation processes and use therefo” (priority 2003, published 2009)
pIC50: −log10 of the molar value. Like-named read-outs stand apart in the source and are kept apart here.

Assays:
Lewis lung cancer = conditions: for Body weight of the animals, end, First time / Body weight of the animals, end, Second time / Body weight of the animals, beginning, First time / Inhibition rate, First time / Weight of the tumor X ± SD, First time / Body weight of the animals, beginning, Second time / Inhibition rate, Second time / Weight of the tumor X ± SD, Second time / Inhibition rate (%) Lewis cancer: Lewis lung cancer; for Body weight of the animals, end, First time / Body weight of the animals, end, Second time: ip × 10qd; for Inhibition rate (%) Lewis cancer: comparison table 43, in vivo;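 as to all read-outs here: mice implanted subcutaneously in the axilla with Lewis lung tumor cells, treated starting the following day, killed roughly three weeks after implantation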
PLA-801 = assay: In vitro cytotoxicity, IC50 by MTT method, PLA-801; type: cell-based; conditions: PLA-801 cell strain; read-out: IC50 PLA-801
How it was run: (§1)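 MTT viability, 48 h exposure: cells 10^5/ml in RPMI1640 + 10% FBS, 37 °C/5% CO2; MTT 4 h, DMSO solubilisation, A490.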

Lovo = assay: In vitro cytotoxicity, IC50 by MTT method, Lovo; type: cell-based; conditions: Homo sapiens; Lovo cell strain; read-out: IC50 Lovo
How it was run: as §1

Kunming mice = conditions: for Death rate: single i.p.
in vivo = conditions: both, mouse, ip
Hela = assay: In vitro cytotoxicity, IC50 by MTT method, Hela; type: cell-based; conditions: Homo sapiens; Hela cell strain; read-out: IC50 Hela
How it was run: as §1

HepG2 = assay: In vitro cytotoxicity, IC50 by MTT method, HepG2; type: cell-based, human; conditions: Homo sapiens; HepG2 cell strain; read-out: IC50 HepG2
How it was run: as §1

S180 sarcoma = conditions: S180 sarcoma; for Body weight of the animals, beginning, First time / Body weight of the animals, end, First time / Inhibition rate, First time / Weight of the tumor X ± SD, First time / Body weight of the animals, beginning, Second time / Body weight of the animals, end, Second time / Inhibition rate, Second time: ip × 10qd; for Inhibition rate (%) S180 sarcomata: comparison table 43, in vivo
BGC-823 = assay: In vitro cytotoxicity, IC50 by MTT method, BGC-823; type: cell-based; conditions: Homo sapiens, BGC-823; BGC823 cell strain; read-out: IC50 BGC823
How it was run: as §1

NIH3T3 = assay: In vitro cytotoxicity, IC50 by MTT method, NIH3T3; type: cell-based; conditions: Mus musculus; NIH3T3 cell strain; read-out: IC50 NIH3T3
How it was run: as §1

Bel-7402 = assay: In vitro cytotoxicity, IC50 by MTT method, Bel-7402; type: cell-based; conditions: Homo sapiens, Bel-7402; Bel7402 cell strain; read-out: IC50 Bel7402
How it was run: as §1

[1] = 50% male 50% female mice, 240 mg/kg
[2] = 50% male 50% female mice, 300 mg/kg
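For Death rate in this document: acute toxicity in Kunming mice grouped by sex, one intraperitoneal dose at five graded levels in Tween-80 plus 0.5% CMC-Na, deaths monitored over two weeks.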
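For LD50 in this document: acute toxicity in Kunming mice grouped by sex, one intraperitoneal dose at five graded levels in Tween-80 plus 0.5% CMC-Na, deaths monitored over two weeks.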
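For MTD in this document: acute toxicity in Kunming mice grouped by sex, one intraperitoneal dose at five graded levels in Tween-80 plus 0.5% CMC-Na, deaths monitored over two weeks.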

O=C(O)c1cc2c3ccccc3n(CCCc3ccccc3)c2cn1 [Compound 48, 9-phenylpropyl-β-carboline-3-carboxylic acid]
Body weight of the animals, end, First time (Lewis lung cancer; Dosage 50 (mg/ml)): 25.3 g
Body weight of the animals, end, Second time (Lewis lung cancer; Dosage 50 (mg/ml)): 25.0 g
Body weight of the animals, beginning, First time (Lewis lung cancer; Dosage 50, ip × 10qd): 20.1 g
Inhibition rate, First time (Lewis lung cancer; Dosage 50, ip × 10qd): 25.10%
Weight of the tumor X ± SD, First time (Lewis lung cancer; Dosage 50, ip × 10qd): 1.82 ± 0.10 g
Body weight of the animals, beginning, Second time (Lewis lung cancer; Dosage 50, ip × 10qd): 19.0 g
Inhibition rate, Second time (Lewis lung cancer; Dosage 50, ip × 10qd): 28.67%
Weight of the tumor X ± SD, Second time (Lewis lung cancer; Dosage 50, ip × 10qd): 2.09 ± 0.19 g
Body weight of the animals, end, First time (Lewis lung cancer; Dosage 100 (mg/ml)): 24.8 g
Body weight of the animals, end, Second time (Lewis lung cancer; Dosage 100 (mg/ml)): 25.2 g
Body weight of the animals, beginning, First time (Lewis lung cancer; Dosage 100, ip × 10qd): 19.8 g
Inhibition rate, First time (Lewis lung cancer; Dosage 100, ip × 10qd): 34.98%
Weight of the tumor X ± SD, First time (Lewis lung cancer; Dosage 100, ip × 10qd): 1.58 ± 0.08 g
Body weight of the animals, beginning, Second time (Lewis lung cancer; Dosage 100, ip × 10qd): 19.3 g
Inhibition rate, Second time (Lewis lung cancer; Dosage 100, ip × 10qd): 39.59%
Weight of the tumor X ± SD, Second time (Lewis lung cancer; Dosage 100, ip × 10qd): 1.77 ± 0.15 g
Inhibition rate (%) Lewis cancer (Lewis lung cancer): 39.59%
pIC50 (PLA-801): 3.59
pIC50 (Lovo): 5.00
Death rate (Kunming mice; [1]): 60
Death rate (Kunming mice; [2]): 100
Death rate (Kunming mice; female mice, 240 mg/kg): 60
Death rate (Kunming mice; female mice, 300 mg/kg): 100
Death rate (Kunming mice; male mice, 240 mg/kg): 60
Death rate (Kunming mice; male mice, 300 mg/kg): 100
LD50 (Kunming mice; mouse, in vivo, ip): 193 to 249 mg/kg
LD50 at 2 weeks (in vivo): 219 mg/kg
pIC50 (Hela): 4.00
pIC50 (HepG2): 4.52
Body weight of the animals, beginning, First time (S180 sarcoma; Dosage 50 (mg/ml)): 19.4 g
Body weight of the animals, end, First time (S180 sarcoma; Dosage 50 (mg/ml)): 24.8 g
Inhibition rate, First time (S180 sarcoma; Dosage 50 (mg/ml)): 19.48%
Weight of the tumor X ± SD, First time (S180 sarcoma; Dosage 50 (mg/ml)): 2.15 ± 0.39 g
Body weight of the animals, beginning, Second time (S180 sarcoma; Dosage 50 (mg/ml)): 18.6 g
Body weight of the animals, end, Second time (S180 sarcoma; Dosage 50 (mg/ml)): 25.8 g
Inhibition rate, Second time (S180 sarcoma; Dosage 50 (mg/ml)): 21.85%
Weight of the tumor X ± SD, Second time (S180 sarcoma; Dosage 50, ip × 10qd): 2.11 ± 0.25 g
Body weight of the animals, beginning, First time (S180 sarcoma; Dosage 100 (mg/ml)): 19.4 g
Body weight of the animals, end, First time (S180 sarcoma; Dosage 100 (mg/ml)): 24.8 g
Inhibition rate, First time (S180 sarcoma; Dosage 100 (mg/ml)): 31.09%
Weight of the tumor X ± SD, First time (S180 sarcoma; Dosage 100 (mg/ml)): 1.84 ± 0.11 g
Body weight of the animals, beginning, Second time (S180 sarcoma; Dosage 100 (mg/ml)): 18.5 g
Body weight of the animals, end, Second time (S180 sarcoma; Dosage 100 (mg/ml)): 26.0 g
Inhibition rate, Second time (S180 sarcoma; Dosage 100 (mg/ml)): 32.22%
Weight of the tumor X ± SD, Second time (S180 sarcoma; Dosage 100, ip × 10qd): 1.83 ± 0.16 g
Inhibition rate (%) S180 sarcomata (S180 sarcoma): 32.22%
pIC50 (BGC-823): 4.52
pIC50 (NIH3T3): 4.52
pIC50 (Bel-7402): 4.30

CCOC(=O)Nc1cc2c3ccccc3n(Cc3ccccc3)c2cn1 [Compound 55, 3-[(ethoxycarbonyl)amino]-9-benzyl-β-carboline]
Anti-tumor activity compared with harmine (compound 1) (Lewis lung cancer; Lewis lung cancer in mice, among 22 compounds tested): a little worse than or equivalent to that of harmines
Body weight of the animals, end, First time (Lewis lung cancer; Dosage 50 (mg/ml)): 23.8 g
Body weight of the animals, end, Second time (Lewis lung cancer; Dosage 50 (mg/ml)): 24.5 g
Body weight of the animals, beginning, First time (Lewis lung cancer; Dosage 50, ip × 10qd): 18.7 g
Inhibition rate, First time (Lewis lung cancer; Dosage 50, ip × 10qd): 21.91%
Weight of the tumor X ± SD, First time (Lewis lung cancer; Dosage 50, ip × 10qd): 1.96 ± 0.12 g
Body weight of the animals, beginning, Second time (Lewis lung cancer; Dosage 50, ip × 10qd): 19.6 g
Inhibition rate, Second time (Lewis lung cancer; Dosage 50, ip × 10qd): 24.58%
Weight of the tumor X ± SD, Second time (Lewis lung cancer; Dosage 50, ip × 10qd): 1.78 ± 0.19 g
Body weight of the animals, end, First time (Lewis lung cancer; Dosage 100 (mg/ml)): 23.5 g
Body weight of the animals, end, Second time (Lewis lung cancer; Dosage 100 (mg/ml)): 23.9 g
Body weight of the animals, beginning, First time (Lewis lung cancer; Dosage 100, ip × 10qd): 19.1 g
Inhibition rate, First time (Lewis lung cancer; Dosage 100, ip × 10qd): 29.88%
Weight of the tumor X ± SD, First time (Lewis lung cancer; Dosage 100, ip × 10qd): 1.76 ± 0.10 g
Body weight of the animals, beginning, Second time (Lewis lung cancer; Dosage 100, ip × 10qd): 19.7 g
Inhibition rate, Second time (Lewis lung cancer; Dosage 100, ip × 10qd): 30.93%
Weight of the tumor X ± SD, Second time (Lewis lung cancer; Dosage 100, ip × 10qd): 1.63 ± 0.18 g
Inhibition rate (%) Lewis cancer (Lewis lung cancer): 30.93%
pIC50 (PLA-801): 3.28
pIC50 (Lovo): 2.67
Death rate (Kunming mice; [1]): 0
Death rate (Kunming mice; [2]): 50
Death rate (Kunming mice; female mice, 240 mg/kg): 0
Death rate (Kunming mice; female mice, 300 mg/kg): 60
Death rate (Kunming mice; male mice, 240 mg/kg): 0
Death rate (Kunming mice; male mice, 300 mg/kg): 40
MTD at 2 weeks (in vivo): 240 mg/kg
pIC50 (Hela): < 2.52
pIC50 (HepG2): < 2.52
Body weight of the animals, beginning, First time (S180 sarcoma; Dosage 50 (mg/ml)): 19.8 g
Body weight of the animals, end, First time (S180 sarcoma; Dosage 50 (mg/ml)): 27.0 g
Inhibition rate, First time (S180 sarcoma; Dosage 50 (mg/ml)): 23.51%
Weight of the tumor X ± SD, First time (S180 sarcoma; Dosage 50 (mg/ml)): 2.18 ± 0.23 g
Body weight of the animals, beginning, Second time (S180 sarcoma; Dosage 50 (mg/ml)): 20.9 g
Body weight of the animals, end, Second time (S180 sarcoma; Dosage 50 (mg/ml)): 24.8 g
Inhibition rate, Second time (S180 sarcoma; Dosage 50 (mg/ml)): 20.00%
Weight of the tumor X ± SD, Second time (S180 sarcoma; Dosage 50, ip × 10qd): 2.28 ± 0.18 g
Body weight of the animals, beginning, First time (S180 sarcoma; Dosage 100 (mg/ml)): 19.4 g
Body weight of the animals, end, First time (S180 sarcoma; Dosage 100 (mg/ml)): 26.7 g
Inhibition rate, First time (S180 sarcoma; Dosage 100 (mg/ml)): 29.12%
Weight of the tumor X ± SD, First time (S180 sarcoma; Dosage 100 (mg/ml)): 2.02 ± 0.22 g
Body weight of the animals, beginning, Second time (S180 sarcoma; Dosage 100 (mg/ml)): 20.3 g
Body weight of the animals, end, Second time (S180 sarcoma; Dosage 100 (mg/ml)): 24.9 g
Inhibition rate, Second time (S180 sarcoma; Dosage 100 (mg/ml)): 28.07%
Weight of the tumor X ± SD, Second time (S180 sarcoma; Dosage 100, ip × 10qd): 2.05 ± 0.17 g
Inhibition rate (%) S180 sarcomata (S180 sarcoma): 29.12%
pIC50 (BGC-823): < 2.52
pIC50 (NIH3T3): 2.75
pIC50 (Bel-7402): 2.61
